Test results reported in PubChem BioAssay (NCI).
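Five concentrations, 48 hours, 96-well plates. TGI marks complete inhibition of growth.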

Assays:
Assay in all cases: DTP human tumour cell line panel, 48 h
786-0 renal = test system: 786-0 renal
A549 NSCLC = test system: A549 NSCLC
HOP-92 NSCLC = test system: HOP-92 NSCLC
K-562 leukemia = test system: K-562 leukemia
NCI-H460 lung = test system: NCI-H460 lung
SK-MEL-2 melanoma = test system: SK-MEL-2 melanoma
SK-MEL-28 melanoma = test system: SK-MEL-28 melanoma
SN12C renal = test system: SN12C renal
NCI-H226 lung = test system: NCI-H226 lung

Compound	TGI (786-0 renal) [µM]	TGI (A549 NSCLC) [µM]	TGI (HOP-92 NSCLC) [µM]	TGI (K-562 leukemia) [µM]	TGI (NCI-H460 lung) [µM]	TGI (SK-MEL-2 melanoma) [µM]	TGI (SK-MEL-28 melanoma) [µM]	TGI (SN12C renal) [µM]	TGI (NCI-H226 lung) [µM]
COC1=NN2C(OC)(c3ccccc3)c3c(-c4ccccc4)sc(-c4ccccc4)c3C2(c2ccccc2)S1 (configuration not stated)	> 100	> 100	> 100	> 100	> 100	> 100	> 100	> 100	–
O=C1c2c(c3c4ccccc4n4c3c3c2c2ccccc2n3C/C=C\C4)C(=O)N1Cc1ccccc1	> 100	> 100	–	> 100	> 100	–	> 100	> 100	> 100
CSC(=S)N(C)NC(=O)c1cccc(C(=O)NN(C)C(=S)SC)n1	91.8	89	55	> 100	> 100	–	> 100	92	81.5
COc1cc(C2[C@H]3C(=O)N(c4ccc(Cc5ccc(N6C(=O)[C@@H]7ON(c8ccccc8)C(c8cc(OC)c(OC)c(OC)c8)[C@@H]7C6=O)cc5)cc4)C(=O)[C@H]3ON2c2ccccc2)cc(OC)c1OC (some centres not stated)	> 100	> 100	–	> 100	> 100	> 100	> 100	> 100	> 100
O=C1Cc2ccccc2N1/N=C\c1ccc(O)cc1	> 100	> 100	> 100	> 100	> 100	> 100	> 100	> 100	> 100
CC1=C(C(=O)Nc2ccccc2C)C(c2ccc(N(C)C)cc2)C(C(=O)Nc2ccccc2C)=C(C)N1	> 100	> 100	–	> 100	> 100	> 100	> 100	> 100	> 100
CC1(C)CCc2cc3c(cc2O1)OC(C)(C)C1c2c(ccc4c2CCC(C)(C)O4)OC31 (configuration not stated)	> 100	> 100	> 100	> 100	> 100	> 100	–	> 100	> 100
C(=C1\CCC/C(=C/c2ccccc2)C1=NNc1ccccc1)/c1ccccc1	> 100	> 100	> 100	> 100	> 100	> 100	> 100	> 100	–
CC(C)O/C=C1\C(=O)C2(SCCS2)[C@H]2CCCC[C@@H]12	> 100	> 100	–	> 100	> 100	> 100	> 100	> 100	> 100
O=C1c2cnccc2Cc2cccc3c2N1c1ccccc1S3	97.8	> 100	38.5	> 100	–	32.5	78.2	> 100	–
CC(=O)Nc1ccc(-c2nnc(SCC(=O)Nc3ccccc3[N+](=O)[O-])o2)cc1	> 100	> 100	> 100	> 100	> 100	> 100	> 100	> 100	> 100
CC1SC2=NC3=C(c4ccccc4C3=O)C(c3ccc(Br)cc3)N2C1=O (configuration not stated)	> 100	> 100	> 100	> 100	> 100	> 100	> 100	> 100	> 100
Cn1cc2ccccc2c1-c1nc(F)nc(Oc2ccc3c(c2)CC[C@@H]2C3CC[C@]3(C)C(O)CCC23)n1 (some centres not stated)	30.5	48.9	44.3	> 100	–	36.1	33.2	33.8	> 100
CSc1nc2c(nc(N)n2C2OCC(O)C(O)C2O)c(=O)[nH]1 (configuration not stated)	> 100	> 100	> 100	> 100	> 100	–	> 100	> 100	> 100
O=C1C2Cc3ccccc3CN2C(=O)N1CN1CCN(CN2C(=O)C3Cc4ccccc4CN3C2=O)CC1 (configuration not stated)	> 100	> 100	> 100	> 100	> 100	> 100	> 100	> 100	> 100
Cc1cn(C2C=CC(=O)C(C)O2)c(=O)[nH]c1=O (configuration not stated)	32.2	> 100	29.5	36.9	35.5	–	28.1	29.8	42.1
COc1ccc(CNc2nc3ccccc3nc2-c2cccs2)cc1OC	> 100	> 100	51.3	> 100	> 100	> 100	> 100	> 100	> 100
O=C(N/C(=C\c1ccc([N+](=O)[O-])cc1)c1nc2[nH]c(=S)[nH]c(=O)c2[nH]1)c1ccccc1	> 100	> 100	> 100	> 100	–	> 100	> 100	> 100	–
COc1cc(C)c(C(=O)/C=C/c2cc(OC)c(O)c(OC)c2)cc1O	39.7	> 100	–	> 100	> 100	38.8	41.4	–	–
